Data from patent publication US20100267638A1, “EXOSITE-DIRECTED THROMBIN INHIBITORS” (CLEVELAND STATE UNIVERSITY, priority 2003, published 2010).
No end group written: not given here.

Assay: Clotting time as a function of peptide concentration (FIG. 12)
Settings: peptide 500 nM
Description: FIG. 12 is a graph illustrating clotting time as a function of concentration of various peptides of interest as follows: DYDYQ (SEQ ID NO. 11) (filled squares); DYDYQ (1, 2) (or as designated in shorthand form, D5Q1,2) (SEQ ID NO. 9) (filled triangles); DYDYQ-1 (SEQ ID NO. 7) (filled inverted triangles); and DYDYQ-2 (SEQ ID NO. 8) (filled diamonds).

For DYDYQ [DYDYQ, Asp-Tyr-Asp-Tyr-Gln], which clotting time is on record?
The clotting time was “relatively long clotting times”.
